Reference: BindingDB's records for doi:10.1021/acs.jmedchem.6b00330 (University of Bonn, 2016)

Legend:
[1] = molecular target: T1, Broad substrate specificity ATP-binding cassette transporter ABCG2 (Homo sapiens, UniProt Q9UNQ0); assay: Inhibition of c-terminal GFP-tagged human ABCG2 expressed in MDCK2 cells assessed as enhancement of Hoechst 33342-induced cytotoxicity incubated for 72 hrs by MTT assay
T1 sequence (Q9UNQ0 whole entry): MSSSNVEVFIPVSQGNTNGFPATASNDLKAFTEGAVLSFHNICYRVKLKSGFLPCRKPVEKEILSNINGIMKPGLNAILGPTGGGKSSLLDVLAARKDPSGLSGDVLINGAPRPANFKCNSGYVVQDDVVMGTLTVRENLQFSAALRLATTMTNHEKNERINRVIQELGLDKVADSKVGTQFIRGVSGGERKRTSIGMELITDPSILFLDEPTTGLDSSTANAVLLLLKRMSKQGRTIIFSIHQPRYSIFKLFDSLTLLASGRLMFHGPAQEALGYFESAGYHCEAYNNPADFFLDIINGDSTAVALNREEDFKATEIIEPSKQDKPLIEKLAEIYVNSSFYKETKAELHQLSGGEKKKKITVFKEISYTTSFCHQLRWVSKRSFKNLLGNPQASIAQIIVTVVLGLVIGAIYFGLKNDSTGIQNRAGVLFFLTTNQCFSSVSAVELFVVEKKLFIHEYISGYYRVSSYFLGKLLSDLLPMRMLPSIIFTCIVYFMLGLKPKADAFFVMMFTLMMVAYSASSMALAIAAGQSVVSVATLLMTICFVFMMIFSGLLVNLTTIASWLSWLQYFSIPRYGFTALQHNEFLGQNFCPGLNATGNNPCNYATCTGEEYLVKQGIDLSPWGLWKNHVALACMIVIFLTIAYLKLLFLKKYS

[2] = molecular target: T1, Broad substrate specificity ATP-binding cassette transporter ABCG2; assay: Inhibition of c-terminal GFP-tagged human ABCG2 expressed in MDCK2 cells assessed as enhancement of SN-38-induced cytotoxicity incubated for 72 hrs by MTT assay
[3] = Inhibition of c-terminal GFP-tagged human ABCG2 expressed in MDCK2 cells assessed as enhancement of Hoechst 33342-induced cytotoxicity incubated for 72 hrs by MTT assay
[4] = Inhibition of c-terminal GFP-tagged human ABCG2 expressed in MDCK2 cells assessed as enhancement of SN-38-induced cytotoxicity incubated for 72 hrs by MTT assay

SMILES	EC50 [1] [nM]	EC50 [2] [nM]	EC50 [3] [nM]	EC50 [4] [nM]
O=[N+]([O-])c1cc(Nc2nc(-c3ccccc3)nc3ccccc23)ccc1O	130	120		
N#Cc1ccc(Nc2nc(-c3ccccc3)nc3ccccc23)cc1			53	41
